In US20070141714A1, “Method to detect small molecules binding to proteins using surface enhanced Raman scattering (SERS)” (Intel Corporation, priority 2005, published 2007):

Tests used:
protein kinase A (PKA) = protein kinase A (PKA) (Homo sapiens, UniProt P17612); test: SERS detection of small molecule binding to protein after size exclusion spin column; settings: 2.5 μM H-89, 0.2 mg/mL protein, PKA reaction buffer, 30 minutes at room temperature; flow through, difference of SERS spectra at 70° C. and room temperature
Protocol: In FIG. 2 small molecules and proteins are mixed in a purification column such as a size exclusion spin column and are allowed to incubate for a period of time. The incubation times depends on the binding affinity between the small molecule and the protein. Typically an incubation time of 10-30 minutes at room temperature is sufficient. The solvent used in the purification column is preferably chosen to optimize binding between the small molecules and the proteins. For example, PKA reaction buffer (50 mM Tris-HCl, 10 mM MgCl2) is preferably used for optimal binding between PKA and H-89.
For example, molecules with molecular weights below a certain cut-off value are retained in the size-exclusion type purification columns while protein molecules are collected in the flow through. Any small molecules that bind to the protein can also be carried through the column with the protein and recovered in the flow through. Raman spectroscopy using SERS active particles can be used to detect the small molecules in the flow through.
In FIG. 2-2 the small molecules are first released from the proteins in the flow through by, for example, heating the flow through. Raman spectroscopy is then again used to detect the presence of the small molecules in the flow through.
H-89 is a known small molecule inhibitor to protein kinase A (PKA). […]

immunoglobulin G (IgG) = test: SERS detection of small molecule binding to protein after size exclusion spin column (negative control protein); settings: 2.5 μM H-89, 0.2 mg/mL protein, same procedure
Protocol: (§1) PIERCE ZEBA-ZEBA desalt spin columns (cat #89882) were washed 10 times with methanol and 10 times with purified water. H-89 was then mixed with PKA or control proteins in a PKA reaction buffer (50 mM Tris-HCl, 10 mM MgCl2), making a final H-89 concentration of 2.5 μM and protein concentration of 0.2 mg/mL. This mixture was incubated at room temperature for 30 minutes, added to a desalting size exclusion spin column, and spun at 1500 g for 2 minutes to remove free H-89.
(§2) The silver colloids are aggregated by 0.5M of Lithium Chloride prior to addition of the sample. Ten spectra are collected from the mixture of sample and aggregated silver colloids. The remaining flow through is heated at 70° C. for 10 minutes, and another SERS measurement is performed. The line labeled PKA is the arithmetic difference in the SERS spectrums at 70° C. and room temperature (intensity on the primary y-axis). The main characteristic peaks of H-89 are visible and marked by black arrows.
(§3) The same procedure described above is repeated with other proteins including bovine serum albumin (labeled BSA), immunoglobulin G (labeled IgG), and Histone (labeled as Histone) as negative controls. The SERS spectrum corresponding to H-89 is not seen in any of these controls.

Histone = test: as above; settings: 2.5 μM H-89, 0.2 mg/mL protein, same procedure
Protocol: as §1, §2, §3

[1] = target: bovine serum albumin (BSA) (Bos taurus, UniProt P02769); test: as above; settings: 2.5 μM H-89, 0.2 mg/mL protein, same procedure
Chain of bovine serum albumin (BSA) (P02769 25-607): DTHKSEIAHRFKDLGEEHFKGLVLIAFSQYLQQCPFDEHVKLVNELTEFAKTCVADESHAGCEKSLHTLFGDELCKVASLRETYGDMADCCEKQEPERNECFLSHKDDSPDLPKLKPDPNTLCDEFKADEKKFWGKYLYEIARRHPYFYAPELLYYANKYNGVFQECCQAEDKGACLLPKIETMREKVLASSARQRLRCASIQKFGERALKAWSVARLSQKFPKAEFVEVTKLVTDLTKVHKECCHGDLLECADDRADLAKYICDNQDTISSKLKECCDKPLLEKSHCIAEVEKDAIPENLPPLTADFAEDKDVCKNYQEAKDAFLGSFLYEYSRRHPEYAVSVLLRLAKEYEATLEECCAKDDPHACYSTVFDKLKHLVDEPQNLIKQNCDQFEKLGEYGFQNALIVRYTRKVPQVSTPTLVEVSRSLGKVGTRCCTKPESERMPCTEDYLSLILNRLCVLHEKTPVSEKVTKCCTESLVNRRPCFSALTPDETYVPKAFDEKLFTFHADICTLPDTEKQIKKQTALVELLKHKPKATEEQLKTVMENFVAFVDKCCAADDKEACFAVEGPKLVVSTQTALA
Protocol: as §1, §2, §3

SMILES: O=S(=O)(NCCNC/C=C/c1ccc(Br)cc1)c1cccc2cnccc12 [H-89]
- binding to PKA (characteristic H-89 peaks in SERS difference spectrum) (protein kinase A (PKA)): there was binding of H-89 to PKA
- specific binding to IgG (SERS spectrum corresponding to H-89) (immunoglobulin G (IgG)): specific binding of H-89 to the control proteins did not occur
- specific binding to Histone (SERS spectrum corresponding to H-89) (Histone): specific binding of H-89 to the control proteins did not occur
- specific binding to BSA (SERS spectrum corresponding to H-89) [1]: specific binding of H-89 to the control proteins did not occur
